A short description of experiment [1]: Test for expectorant activity (phenol red in trachea). In kind it is in vivo, mice. As for the experimental part:
Using the method of Engler et al. ([…]. Pharmacol. […] Jian-Hua Shang et al, J. Ethnopharmacology, 129, 293-298, 2010), the expectorant activity of the extract of the present invention was measured. […] Orientbio, Korea) were divided into groups, each consisting of 10 mice. […] After 30 minutes, the mice were subjected to cervical dislocation, and blood was discharged from the abdominal aorta, after which the trachea was completely excised. The isolated trachea was cold-stored in 1 ml of physiological saline.

For experiment [2], the system named is croton oil-induced ear edema. The experiment is described as follows: Croton oil-induced ear edema. It is filed as in vivo, mice. The settings on record: oral dose 100 mg/kg. The method, then: When croton oil is applied to the skin, an inflammatory reaction occurs to produce redness, a swelling and a blister on the applied surface (Archives of Pharmacal Research, 1993, 16[1], 18-24).
As experimental animals, male ICR mice (weighed 20-23 g; Orientbio, Korea) were divided into groups, each consisting of 10 mice. Each of the test samples and the comparative drug COX-2 inhibitor Celecoxib (100 mg/kg, Pfizer) was orally administered into the mice which have been fasted for one day, and after 1 hour, a solution of 3% croton oil in acetone was applied uniformly to the inner and outer sides of the right ear of each mouse to induce ear edema.

The target of another experiment is T1, 5-lipoxygenase (Rattus norvegicus, UniProt P12527).
T1 construct: rat basophilic leukemia cells (RBL-1) were stabilized using serum-free RPMI medium; endogenous in cells; host or cells: RBL-1 (rat basophilic leukemia cells)
T1 sequence (P12527 whole entry): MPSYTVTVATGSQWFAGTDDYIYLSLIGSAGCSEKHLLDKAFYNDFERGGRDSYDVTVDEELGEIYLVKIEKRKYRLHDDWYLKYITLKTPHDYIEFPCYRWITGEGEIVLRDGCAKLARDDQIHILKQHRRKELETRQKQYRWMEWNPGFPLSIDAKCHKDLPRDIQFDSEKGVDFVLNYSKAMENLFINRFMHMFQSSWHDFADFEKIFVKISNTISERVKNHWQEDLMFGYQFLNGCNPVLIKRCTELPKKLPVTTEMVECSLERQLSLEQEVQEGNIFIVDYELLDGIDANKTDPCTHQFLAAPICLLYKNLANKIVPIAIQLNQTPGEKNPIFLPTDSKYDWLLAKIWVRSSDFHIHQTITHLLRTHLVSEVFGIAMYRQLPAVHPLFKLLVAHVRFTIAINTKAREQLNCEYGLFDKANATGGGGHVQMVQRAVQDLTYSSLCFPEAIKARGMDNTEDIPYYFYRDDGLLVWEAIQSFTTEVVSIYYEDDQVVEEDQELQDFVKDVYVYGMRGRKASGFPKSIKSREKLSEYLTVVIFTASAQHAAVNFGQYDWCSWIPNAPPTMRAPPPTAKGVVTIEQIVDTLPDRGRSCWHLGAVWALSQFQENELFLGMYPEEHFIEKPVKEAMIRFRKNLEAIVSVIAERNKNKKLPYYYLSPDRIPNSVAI
The experiment in a line: 5-Lipoxygenase inhibitory activity (leukotriene production in RBL-1 cells, cysteinyl leukotriene EIA). The settings on record: RBL-1, read-out: 5-lipoxygenase inhibition rate(%). It is filed as cell-based. As for the experimental part: Specifically, rat basophilic leukemia cells (RBL-1) were stabilized using serum-free RPMI medium at 37° C., and each of the extracts and arachidonic acid as a substrate were added thereto and incubated for 15 minutes to produce leukotriene. The amount of the produced leukotriene was measured using a cysteinyl leukotriene EIA kit. As comparative drugs, the 5-lipoxygenase inhibitors zileuton and montelukast were used.

Experiment [3] deals with extracted bronchi of guinea pigs. The experiment in a line: Test for bronchoconstriction (in vitro), ovalbumin-induced constriction of isolated sensitized bronchi. The note with it: Cavia porcellus, read-out: Bronchoconstriction inhibition rate(%).
Procedure: The comparative drug rolipram was used at a concentration of 20 μM, and each of the extracts was used at a concentration of 0.3 mg/ml.
Specifically, Hartely male guinea pigs (400-500 g, BGI, Korea) were sensitized by intravenous injection with 2 ml/kg of anti-ovalbumin anti-serum. At 48 hours after sensitization, the guinea pigs were sacrificed and the bronchi were extracted therefrom. Then, other tissues attached to the bronchi were removed using a tyrode solution, and each of the bronchi was cut in a ring shape containing 2-3 cartilages. Then, the cartilage portion of the ring was excised while the bronchial muscle was preserved. Then, a string was connected to both sides of each bronchus which was then suspended in an organ bath and stabilized for a predetermined time. Then, 10 μg/ml of carbachol was added to induce the maximum constriction of the bronchi which were then washed with a tyrode solution and stabilized. Next, 5 μM of indomethacin was added to each bronchus, and after 1 minute, each of the extracts was added to each bronchi, and after 5 minutes, 20 μg/ml of ovalbumin was added to induce bronchoconstriction. […] The relaxation of the bronchi was measured using a physiological activity meter connected (powerlab 8/30, AD Instrument) with a force transducer (WPI).
For experiment [4], the system named is leukocytes in the bronchoalveolar lavage. The experiment is described as follows: Test for inhibition of bronchial inflammation, leukocytes in bronchoalveolar lavage of ovalbumin-sensitized mice. The note with it: oral 10 mg/kg b.i.d. It is filed as in vivo.
Procedure: Specifically, BALB/c female mice (6.5 weeks old, SLC, Japan) were sensitized by intraperitoneal administration of 0.2 ml of a 1:1 mixture of 10 μg of ovalbumin (OVA, Sigma) and 4 mg of aluminum hydroxide (Alum, Pierce) at days 0, 7 and 14. At 8 days and 10 days after the final sensitization, aerosol prepared from 1.0% ovalbumin using high-pressure compressed air was sprayed into the mice for 50 minutes to induce airway inflammation. As a comparative drug, 10 mg/kg of rolipram (Sigma) was used. The comparative drug and the test materials were orally administered twice (morning and evening) a day during a period ranging from 21 days to 23 days after the first sensitization. At 24 hours after the final induction of inflammation, the bronchoalveoli were laved with 1.5 ml of phosphate buffered saline (pH 7.2) to collect a bronchoalveolar lavage. The number of leukocytes in the lavage was counted using a hematology analyzer (Drew Scientific Inc., HEMAVET HV950FS, M-950HV).
For experiment [5], the system named is citric acid-induced coughing. The experiment in a line: Test for antitussive activity (citric acid-induced coughing). It is filed as in vivo, guinea pigs. The note with it: Oral dose 50 mg/kg. The method, then: In order to evaluate the antitussive activity of the extract of the present invention (American Journal of Respiratory and Critical Care Medicine, 1998, 158 [1], 42-48), the extract of Example 2 was administered into guinea pigs, and then citric acid was sprayed into the guinea pig to induce coughing, after which the number of coughs was measured. Citric acid is frequently used in studies on the activity of airway sensory nerves, and the inhalation of citric acid causes bronchoconstriction, nasal stimulation, coughing, bronchial hypersensitivity and the like.
Specifically, as experimental animals, Hartely male guinea pigs (weighed 350-400 g; Orientbio, Korea) were divided into groups, each consisting of 10-12 animals. Each of the extract of Example 2 and 50 mg/kg of the comparative drug theobromine (Sigma) was administered orally into the grouped mice which have been fasted for one day. After 1 hour, 0.3M citric acid as a cough inducer was sprayed into the animals to induce coughing.

Consider `Nc1c(Br)cc(Br)cc1CN[C@H]1CC[C@H](O)CC1` [Ambroxol, ambroxol], for which the “Expectorant activity (%)” value in experiment [1] (Oral dose 250 mg/kg) worked out at 27%.

On to `Cc1ccc(-c2cc(C(F)(F)F)nn2-c2ccc(S(N)(=O)=O)cc2)cc1` [Celecoxib], for which, in experiment [2], the “Ear edema inhibition rate (%)” value is 17%.

Regarding `[Cl-].[Cl-].[Mg+2]` [Magnesium chloride], in experiment [1] (Oral dose 500 mg/kg), the “Expectorant activity (%)” value came out at 33%.

Broadly, the inhibition is the relative decrease from the control value, in per cent. Regarding `CC(c1cc2ccccc2s1)N(O)C(N)=O` (stereo not shown) [Zileuton, zileuton], at 5-lipoxygenase, the inhibition at 1 µM was 63%.

`COc1ccc(C2CNC(=O)C2)cc1OC1CCCC1` (stereo not shown) [rolipram]: the inhibition at 20 µM in experiment [3] was 62%. For the same compound, the “Inhibition rate (%) of pulmonary bronchial inflammation” value in experiment [4] is recorded as 22%.

Consider `Cn1cnc2c1c(=O)[nH]c(=O)n2C` [theobromine], for which, in experiment [5], the “Cough inhibition rate (%)” value was 36%.
